# Assay results from patent publication US10045990B2, “ERBB4 inhibitors and methods of use thereof” (Arizona Board of Regents on behalf of Arizona State …, priority 2015, dated 2018).
# Test system: protein-tyrosine kinases from the human genome
# Settings: compared to the control slides (FIG. 9)
# Procedure: NAPPA kinase microarrays we generated with virtually all protein-tyrosine kinases from the human genome. The coding sequence for each tyrosine kinase was clone into an expression plasmid and immobilized on the microarray surface, with one protein kinase per feature. After the microarray was expressed, any phosphorylation that occurred during the expression step was removed by a treatment with lambda phosphatase.
# Unphosphorylated microarrays were then incubated with a kinase buffer (25 mM Tris-HCl (pH 7.5), 5 mM beta-glycerophosphate, 2 mM dithiothreitol (DTT), 0.1 mM Na3VO4, 10 mM MgCl2) supplemented with […] and/or kinase inhibitors (concentration ranging from 0-10 uM). The kinase autophosphorylation activity was measured through the levels of phosphorylation present in each feature and was detected by phospho-tyrosine antibody. […] Staurosporine is a pan kinase inhibitor used as a control.
smiles,measurement,value
CN[C@@H]1C[C@H]2O[C@@](C)([C@@H]1OC)n1c3ccccc3c3c4c(c5c6ccccc6n2c5c31)C(=O)NC4 [Staurosporine],overall phosphorylation signal of the microarrays,drastically reduce
